# Test results taken from the supplement of paper PMC13380429.
# ± gives the standard deviation of the averaged measurements.
# Experiments:
# Conditions in all cases: 72 h
# Caco-2 [1] = assay: cell viability relative to DMSO; higher = less toxic
# Calu-3 [2] = assay: as above
# HepG2 [3] = assay: as above
# U2OS [4] = assay: as above
# Vero E6 [5] = assay: as above
# Caco-2 [6] = assay: relative viability EC50 (midpoint between 100% and the lowest measured viability); higher = less toxic
# Calu-3 [7] = assay: as above
# U2OS [8] = assay: as above
# Vero E6 [9] = assay: as above
# Caco-2 [10] = assay: drug sensitivity score (DSS) for viability; higher = more toxic; extreme values may be limits of the assay
# Calu-3 [11] = assay: as above
# HepG2 [12] = assay: as above
# U2OS [13] = assay: as above
# Vero E6 [14] = assay: as above
SMILES,cell viability (Caco-2 [1]; 1 nM) [%],cell viability (Caco-2 [1]; 10 nM) [%],cell viability (Caco-2 [1]; 100 nM) [%],cell viability (Caco-2 [1]; 1000 nM) [%],cell viability (Caco-2 [1]; 10000 nM) [%],cell viability (Calu-3 [2]; 1 nM) [%],cell viability (Calu-3 [2]; 10 nM) [%],cell viability (Calu-3 [2]; 100 nM) [%],cell viability (Calu-3 [2]; 1000 nM) [%],cell viability (Calu-3 [2]; 10000 nM) [%],cell viability (HepG2 [3]; 1 nM) [%],cell viability (HepG2 [3]; 10 nM) [%],cell viability (HepG2 [3]; 100 nM) [%],cell viability (HepG2 [3]; 1000 nM) [%],cell viability (HepG2 [3]; 10000 nM) [%],cell viability (U2OS [4]; 1 nM) [%],cell viability (U2OS [4]; 10 nM) [%],cell viability (U2OS [4]; 100 nM) [%],cell viability (U2OS [4]; 1000 nM) [%],cell viability (U2OS [4]; 10000 nM) [%],cell viability (Vero E6 [5]; 1 nM) [%],cell viability (Vero E6 [5]; 10 nM) [%],cell viability (Vero E6 [5]; 100 nM) [%],cell viability (Vero E6 [5]; 1000 nM) [%],cell viability (Vero E6 [5]; 10000 nM) [%],relative viability EC50 (Caco-2 [6]) [µM],relative viability EC50 (Calu-3 [7]) [µM],relative viability EC50 (U2OS [8]) [µM],relative viability EC50 (Vero E6 [9]) [µM],drug sensitivity score (Caco-2 [10]),drug sensitivity score (Calu-3 [11]),drug sensitivity score (HepG2 [12]),drug sensitivity score (U2OS [13]),drug sensitivity score (Vero E6 [14])
Cc1cc(C)c(/C=C2\C(=O)Nc3ccccc32)[nH]1 [semaxanib],103,90.6,100,90.4,91.3,93.2,87.4,93.6,94.9,102,99,96.2,91,92,67.1,99.7,96.6,100,99.4,97.4,103,102,98.7,105,106,> 10,> 10,> 10,> 10,0,0,2.4,0,0
Cn1ncnc1[C@H]1c2n[nH]c(=O)c3cc(F)cc(c23)N[C@@H]1c1ccc(F)cc1 [talazoparib],105,96.3,93.7,82.7,85.9,105,84.3,93.3,68.9,58.2,98.8,89.3,77.3,71.4,50.1,,,,,,95.1,97.6,77.6,66.3,54.5,> 10,,,,2.1,6.3,8.5,,8.7
COc1ccc(-c2nc3cc(C4=NNC(=O)CC4C)ccc3[nH]2)cc1 (stereo unspecified) [pimobendan],106,104,98.4,96.4,80.7,98,85.8,112,95.8,90.8,120,113,103,105,59.5,107,105,103,97.7,84.7,105,110,99.2,101,92.7,> 10,> 10,> 10,> 10,1,0,1.7,0.5,0
CC(C)NC[C@@H](C(=O)N1CCN(c2ncnc3c2[C@H](C)C[C@H]3O)CC1)c1ccc(Cl)cc1 [GDC-0068],107,107,96,83.2,69.1,101,108,89.9,80.8,56.7,109,115,108,98.9,71.4,105,100,101,96.8,87.2,105,102,100,101,93.2,,,> 10,> 10,3,4.3,1.3,0.3,0
CCN1CCN(C(=O)N[C@@H](C(=O)N[C@@H]2C(=O)N3C(C(=O)O)=C(CSc4nnnn4C)CS[C@H]23)c2ccc(O)cc2)C(=O)C1=O [cefoperazone],98.5,107,102,100,99.6,89.8,101,97,97.1,102,,,,,,,,,,,96.7,104,99.5,106,98.4,> 10,> 10,,> 10,0,0,,,0
C/C=C(/C)C(=O)O[C@H]1C(C)=C[C@]23C(=O)[C@@H](C=C(CO)[C@@H](O)[C@]12O)[C@H]1[C@@H](C[C@H]3C)C1(C)C [ingenol-mebutate],109,110,89.8,81.8,84.6,117,110,96.6,102,105,102,86.4,66.4,70.7,77.7,101,88.5,75.2,89.1,93.4,99.2,83.9,54.7,53,51.7,> 10,> 10,> 10,,3.2,0,12,0.8,16.5
c1ccc(-c2n[nH]c3c2oc2ccccc23)cc1,107,99.4,104,96.8,89.7,89.6,103,102,105,110,104,106,90.1,84,74.5,103,102,98.5,99.6,93.8,91,96.4,91.7,90.1,102,> 10,> 10,> 10,> 10,0,0,2.9,0,0
Oc1ccc(OC2CCCCO2)cc1 (stereo unspecified) [deoxyarbutin],89.2,99.1,99.1,97.3,104,98.1,98.2,97.4,110,92.9,,,,,,,,,,,,,,,,> 10,> 10,,,0,0,,,
COC(=O)N[C@H](C(=O)N[C@@H](Cc1ccccc1)[C@@H](O)CN(Cc1ccc(-c2ccccn2)cc1)NC(=O)[C@@H](NC(=O)OC)C(C)(C)C)C(C)(C)C [atazanavir],90.5,112,92.9,84.8,80.1,99.3,99.7,91.4,91,97.1,,,,,,111,97.1,102,94,99.1,96.3,102,90.2,99.6,112,> 10,> 10,> 10,> 10,2.3,0,,0,0
CCOc1ccc(Cc2nccc3cc(OCC)c(OCC)cc23)cc1OCC [ethaverine],89.5,87.4,90.3,82.9,77.3,98.8,100,101,105,69.3,86.2,91.2,105,76.5,57.3,93.3,106,95.4,96.6,86.1,116,90.6,103,95.2,90.9,> 10,,> 10,> 10,3.6,1.1,5.1,0.3,0
O=C(/C=C/c1ccc(O)c(O)c1)O[C@@H]1C[C@](O)(C(=O)O)C[C@@H](O)[C@H]1O [chlorogenic-acid],,,,,,,,,,,,,,,,,,,,,,,,,,,,,,,0,0,0,0
Cc1cc(Nc2cc(C)c(C#N)c(N[C@@H](C)CCCC(C)(C)O)n2)n[nH]1 [TC-A-2317],103,102,94,77.6,25.3,98,89.4,84.7,77.2,40.8,110,103,93.2,62.8,54.3,106,98.2,96.9,68.8,7.2,105,104,96.4,75.7,22,1.47,0.799,1.33,1.4,7.2,6.7,7.5,9.4,7.8
CCCCCCOc1cc2c(cc1N(C)c1ncc(C(=O)O)cn1)C(C)(C)CCC2(C)C [PA-452],,,,,,,,,,,,,,,,97.7,92.8,97,101,103,,,,,,,,> 10,,,,,0,
O=C(O)c1nn(Cc2ccc(Cl)cc2Cl)c2ccccc12 [lonidamine],95.3,107,94.1,105,96.4,98.5,96.2,89.8,101,116,,,,,,100,110,98,111,98,98.8,102,102,95.8,95.8,> 10,> 10,> 10,> 10,0,0,,0,0
CC1COc2c(N3CCN(C)CC3)c(F)cc3c(=O)c(C(=O)O)cn1c23 (stereo unspecified) [ofloxacin],,,,,,,,,,,,,,,,,,,,,,,,,,,,,,,0,0.85 ± 1.2,0,0
COC(=O)C1=CCCN(C)C1 [arecoline],,,,,,,,,,,,,,,,,,,,,,,,,,,,,,,0.6,0,0,
CCC(C)(C)c1ccc(CC(C)CN2C[C@@H](C)O[C@@H](C)C2)cc1 (stereo partly specified) [amorolfine],86,114,91.8,84.8,76,93.8,109,92.9,100,94.7,,,,,,,,,,,,,,,,> 10,> 10,,,2.5,0,,,
CN1c2cc3c(cc2N=C(c2ccc(C(=O)O)cc2)c2ccccc21)C(C)(C)CCC3(C)C [LE-135],88.8,100,101,89.7,60.1,108,108,91.2,102,98.5,85.1,104,86.8,87.6,74,101,106,100,97.8,57.2,99,102,98.2,87.3,78.7,,> 10,,> 10,3.6,0,2.4,2.5,1.7
O=C1c2ccccc2-c2n[nH]c3cccc1c23 [pyrazolanthrone],111,92.3,99.4,102,97.9,94.9,95.7,92.4,100,98.6,101,80.2,96.8,82.4,71.5,,,,,,94.7,102,99.8,106,105,> 10,> 10,,> 10,0,0,3.3,,0
